Values joined by “and” are separate entries in the source; they are usually repeats but may differ in a detail not shown here. Identical values can stand only once.
Key:
wild-type AcpS = biological target: T1, wild-type AcpS (Escherichia coli, UniProt P24224); assay: Inhibition of purified wild-type AcpS by DNM0547; type: biochemical, E. coli; settings: for AcpS rate nM/min, Mean / AcpS rate: Suppl Fig 3, [AcpS_WT] 5 nM; for AcpS rate: replicates
T1 construct: 6x-His (C); made in house

AcpS^F50/50A = AcpS^F50/50A (Escherichia coli, UniProt P24224, F49A); assay: Inhibition of purified AcpS site-directed mutant by DNM0547; type: biochemical, E. coli
Protocol: Using purified E. coli AcpS proteins, we determined the enzyme activity of wild-type and numerous AcpS mutants. Those analyzed by scanning alanine mutagenesis included (S. aureus amino acid residue followed by the corresponding E. coli residue) R46/48, F50/50, R54/53, K63/62, N82/81, and H-/108.
Recombinant His-Tagged AcpS expression was induced by IPTG addition and overnight culture. Cell lysate was obtained by sequential aspiration through 16, 18 and 21 G needles in a buffer of 50 mM Tris-HCl (pH 8.5), 10 mM MgCl2, 2 mM DTT, 5% glycerol, and further adjusted to pH 8.1 with MES. […] In a typical AcpS enzyme activity assay, 57 µM [^3H]acetyl-CoA, 2 µg apo-ACP, 10 mM MgCl2, 5 mM DTT, 50 mM Na phosphate (pH 7.0), and AcpS in a final volume of 10 µL were incubated at room temperature in a 1.5 mL microcentrifuge tube. At 5, 10, 15, and 20 min 2 µL of reaction were added to 750 µl 10% TCA on ice. […] 2 mL of scintillation fluid was added, and the amount of [^3H]-labeled holo-ACP formed was quantified by liquid scintillation counting. […] Routinely, each data point was determined at least by triplicate. […]
coli wild type and AcpS mutants determined using purified proteins. b, AcpS enzyme activity for each AcpS mutant was assayed at increasing concentration of DNM0547 (0-128 µM). IC50 was determined using GraphPad Prism. […]

[1] = test system: MRSA MMX 2119 (NRS23, USA100) and MRSA MMX 4675 (ATCC BAA-1556, USA300); assay: Time kill; type: cell-based, S. aureus; settings: for drop in surviving bacteria: two strains of MRSA
Protocol: We also sought to determine if DNM0547 was bacteriostatic or bactericidal. Time kill experiments were carried out using increasing doses of DNM0547 against two different strains of MRSA.
Supplementary Figure 5. Time kill of DNM0547 versus S. aureus. The time kill of DNM0547
4675 (ATCC BAA-1556, USA300) were determined. Representative experiments are shown. […]

MRSA (ATCC 33591) = assay: Mouse cellulitis model of infection, topical treatment; type: in vivo, SKH1 mice; settings: for Wound size (mm2), Mean / Wound size (mm2): Fig 2d
Protocol: SKH1 mice from Charles River were used and male and female mice were utilized, sample size prevented disaggregation of data by sex. Mice were housed with a 12 h light and dark cycle at 21 °C in relative humidity of 40–50%. Investigators were blinded to group allocation, data collection, and data analysis. The formulation for delivery of DNM0547 was Glaxal base (WellSpring Pharmaceutical Canada Corp., Oakville, Canada). Formulation was performed by dissolving compound in Glaxal base to give final concentrations of 2% DNM0547 compound (w/v). MRSA (ATCC #33591) were grown to mid-log phase, concentrated by centrifugation and suspended in sterile PBS at a stock concentration of 2 × 10^11 CFU/mL.
Four week old mice were anesthetized and injected intradermally with 1 × 10^8 CFU/mouse. 4 h after injection, mice were treated with 50 μl 2% DNM0547 cream, or excipient alone. Lesion dimensions were recorded daily for seven days. Food and water were given ad libidum. On day seven, mice were euthanized and the lesion area aseptically removed to 3 mL sterile PBS. The samples were homogenized and serial dilutions were plated on blood agar and incubated at 37 °C to determine CFU. The mouse model of skin infection was performed and evaluated with Washington Biotechnology Inc (Baltimore, MD, USA).

[2] = 2% cream for 7 days, versus vehicle control

T1 sequence (P24224 whole entry): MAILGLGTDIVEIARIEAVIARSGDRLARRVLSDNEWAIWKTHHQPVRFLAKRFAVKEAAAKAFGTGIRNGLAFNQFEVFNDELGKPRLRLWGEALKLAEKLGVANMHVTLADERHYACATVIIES
AcpS^F50/50A, sequence (P24224 2-126 F49A): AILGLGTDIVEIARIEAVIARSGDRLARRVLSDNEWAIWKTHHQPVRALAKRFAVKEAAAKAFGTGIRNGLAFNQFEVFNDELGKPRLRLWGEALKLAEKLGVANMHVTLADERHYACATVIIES

CC(C)c1cc(Cl)ccc1-c1cc(-c2nnn[nH]2)c(-c2ccc(Cl)cc2C(C)C)s1 [DNM0547]
IC50 (wild-type AcpS): 5.1 µM | AcpS rate nM/min, Mean (wild-type AcpS; Drug Conc 1 uM): 40.51 nM/min | AcpS rate (wild-type AcpS; Drug Conc 1 uM): 41.16 nM/min and 37.27 nM/min and 43.10 nM/min | AcpS rate nM/min, Mean (wild-type AcpS; Drug Conc 2 uM): 36.72 nM/min | AcpS rate (wild-type AcpS; Drug Conc 2 uM): 35.90 nM/min and 37.65 nM/min and 36.61 nM/min | AcpS rate nM/min, Mean (wild-type AcpS; Drug Conc 4 uM): 24.24 nM/min | AcpS rate (wild-type AcpS; Drug Conc 4 uM): 27.20 nM/min and 22.45 nM/min and 23.08 nM/min | AcpS rate nM/min, Mean (wild-type AcpS; Drug Conc 8 uM): 14.81 nM/min | AcpS rate (wild-type AcpS; Drug Conc 8 uM): 14.57 nM/min and 15.17 nM/min and 14.69 nM/min | AcpS rate nM/min, Mean (wild-type AcpS; Drug Conc 16 uM): 6.58 nM/min | AcpS rate (wild-type AcpS; Drug Conc 16 uM): 5.73 nM/min and 8.26 nM/min and 5.76 nM/min | AcpS rate nM/min, Mean (wild-type AcpS; Drug Conc 32 uM): 2.47 nM/min | AcpS rate (wild-type AcpS; Drug Conc 32 uM): 2.50 nM/min and 2.59 nM/min and 2.33 nM/min | AcpS rate nM/min, Mean (wild-type AcpS; Drug Conc 64 uM): 1.94 nM/min | AcpS rate (wild-type AcpS; Drug Conc 64 uM): 1.85 nM/min and 1.95 nM/min and 2.00 nM/min | AcpS rate nM/min, Mean (wild-type AcpS; Drug Conc 128 uM): 1.59 nM/min | AcpS rate (wild-type AcpS; Drug Conc 128 uM): 1.43 nM/min and 1.51 nM/min and 1.82 nM/min | remaining activity at 1 µM (wild-type AcpS; read-out: % of untreated, Suppl Fig 3, [AcpS_WT] 5 nM, Drug Conc 1 uM, replicates): 99.1% | remaining activity at 2 µM (wild-type AcpS; read-out: % of untreated, Suppl Fig 3, [AcpS_WT] 5 nM, Drug Conc 2 uM, replicates): 86.4% | remaining activity at 4 µM (wild-type AcpS; read-out: % of untreated, Suppl Fig 3, [AcpS_WT] 5 nM, Drug Conc 4 uM, replicates): 65.5% | remaining activity at 8 µM (wild-type AcpS; read-out: % of untreated, Suppl Fig 3, [AcpS_WT] 5 nM, Drug Conc 8 uM, replicates): 35.1% | remaining activity at 16 µM (wild-type AcpS; read-out: % of untreated, Suppl Fig 3, [AcpS_WT] 5 nM, Drug Conc 16 uM, replicates): 13.8% | remaining activity at 32 µM (wild-type AcpS; read-out: % of untreated, Suppl Fig 3, [AcpS_WT] 5 nM, Drug Conc 32 uM, replicates): 6.02% | remaining activity at 64 µM (wild-type AcpS; read-out: % of untreated, Suppl Fig 3, [AcpS_WT] 5 nM, Drug Conc 64 uM, replicates): 4.46% | remaining activity at 128 µM (wild-type AcpS; read-out: % of untreated, Suppl Fig 3, [AcpS_WT] 5 nM, Drug Conc 128 uM, replicates): 3.45% | IC50 (AcpS^F50/50A): 16.2 µM | drop in surviving bacteria ([1]; 2x MIC, at 2 h and 6 h): three | drop in surviving bacteria ([1]; 4x and 8x MIC, at 2 h): three | CFU/mL ([1]; Suppl Fig 5a, S. aureus MMX 2119, 2X, 0 hr): 7.70E+05 CFU/mL | CFU/mL ([1]; Suppl Fig 5a, S. aureus MMX 2119, 2X, 2 hr): 6.00E+02 CFU/mL | CFU/mL ([1]; Suppl Fig 5a, S. aureus MMX 2119, 2X, 6 hr): 3.00E+02 CFU/mL | CFU/mL ([1]; Suppl Fig 5a, S. aureus MMX 2119, 2X, 24 hr): LOD | CFU/mL ([1]; Suppl Fig 5a, S. aureus MMX 2119, 4X, 0 hr): 7.70E+05 CFU/mL | CFU/mL ([1]; Suppl Fig 5a, S. aureus MMX 2119, 4X, 2 hr): 4.50E+02 CFU/mL | CFU/mL ([1]; Suppl Fig 5a, S. aureus MMX 2119, 4X, 6 hr): 1.50E+02 CFU/mL | CFU/mL ([1]; Suppl Fig 5a, S. aureus MMX 2119, 4X, 24 hr): LOD | CFU/mL ([1]; Suppl Fig 5a, S. aureus MMX 2119, 8X, 0 hr): 7.70E+05 CFU/mL | CFU/mL ([1]; Suppl Fig 5a, S. aureus MMX 2119, 8X, 2 hr): LOD | CFU/mL ([1]; Suppl Fig 5a, S. aureus MMX 2119, 8X, 6 hr): LOD | CFU/mL ([1]; Suppl Fig 5a, S. aureus MMX 2119, 8X, 24 hr): LOD | CFU/mL ([1]; Suppl Fig 5b, S. aureus MMX 4657, 2X, 0 hr): 1.01E+06 CFU/mL | CFU/mL ([1]; Suppl Fig 5b, S. aureus MMX 4657, 2X, 2 hr): 1.05E+03 CFU/mL | CFU/mL ([1]; Suppl Fig 5b, S. aureus MMX 4657, 2X, 6 hr): LOD | CFU/mL ([1]; Suppl Fig 5b, S. aureus MMX 4657, 2X, 24 hr): LOD | CFU/mL ([1]; Suppl Fig 5b, S. aureus MMX 4657, 4X, 0 hr): 1.01E+06 CFU/mL | CFU/mL ([1]; Suppl Fig 5b, S. aureus MMX 4657, 4X, 2 hr): 2.50E+02 CFU/mL | CFU/mL ([1]; Suppl Fig 5b, S. aureus MMX 4657, 4X, 6 hr): LOD | CFU/mL ([1]; Suppl Fig 5b, S. aureus MMX 4657, 4X, 24 hr): LOD | CFU/mL ([1]; Suppl Fig 5b, S. aureus MMX 4657, 8X, 0 hr): 1.01E+06 CFU/mL | CFU/mL ([1]; Suppl Fig 5b, S. aureus MMX 4657, 8X, 2 hr): LOD | CFU/mL ([1]; Suppl Fig 5b, S. aureus MMX 4657, 8X, 6 hr): LOD | CFU/mL ([1]; Suppl Fig 5b, S. aureus MMX 4657, 8X, 24 hr): LOD | reduction in wound size (MRSA (ATCC 33591); [2]): 4 fold | reduction of bacterial load (MRSA (ATCC 33591); [2]): > 98% | CFUs (MRSA (ATCC 33591); Fig 2e, individual animals): 66 CFUs and 3900 CFUs and 0 CFUs (2×) and 57 CFUs | Wound size (mm2), Mean (MRSA (ATCC 33591); Day 1): 14.643 mm2 | Wound size (mm2), Mean (MRSA (ATCC 33591); Day 2): 24.6313 mm2 | Wound size (mm2), Mean (MRSA (ATCC 33591); Day 3): 14.2828 mm2 | Wound size (mm2), Mean (MRSA (ATCC 33591); Day 4): 14.2975 mm2 | Wound size (mm2), Mean (MRSA (ATCC 33591); Day 5): 12.6205 mm2 | Wound size (mm2), Mean (MRSA (ATCC 33591); Day 6): 11.8387 mm2 | Wound size (mm2), Mean (MRSA (ATCC 33591); Day 7): 14.2246 mm2 | Wound size (mm2) (MRSA (ATCC 33591); individual animals, Day 1): 12.5374 mm2 and 14.3799 mm2 and 14.54 mm2 and 15.8884 mm2 and 15.87 mm2 | Wound size (mm2) (MRSA (ATCC 33591); individual animals, Day 2): 25.0932 mm2 and 30.8908 mm2 and 21.02 mm2 and 14.3128 mm2 and 31.84 mm2 | Wound size (mm2) (MRSA (ATCC 33591); individual animals, Day 3): 14.5538 mm2 and 21.2799 mm2 and 9.59 mm2 and 10.8726 mm2 and 15.12 mm2 | Wound size (mm2) (MRSA (ATCC 33591); individual animals, Day 4): 15.4052 mm2 and 19.652 mm2 and 13.70 mm2 and 11.5756 mm2 and 11.16 mm2 | Wound size (mm2) (MRSA (ATCC 33591); individual animals, Day 5): 9.8797 mm2 and 13.6551 mm2 and 8.00 mm2 and 10.1736 mm2 and 21.40 mm2 | Wound size (mm2) (MRSA (ATCC 33591); individual animals, Day 6): 12.7154 mm2 and 14.2046 mm2 and 11.72 mm2 and 7.547 mm2 and 13.01 mm2 | Wound size (mm2) (MRSA (ATCC 33591); individual animals, Day 7): 15.755 mm2 and 18.619 mm2 and 16.44 mm2 and 5.851 mm2 and 14.46 mm2
